Experimental data reported in patent publication US12188040B2, “Method for enhancing gene expression using AAV vector” (priority 2018, dated 2025).
Values joined by “and” are separate entries in the source; they are usually repeats but may differ in a detail not shown here. Equal entries are not always repeated. Where two headings read alike, the source gives them in different places.

System: HEK293 cells
Details: for D/L ratio of expression intensity: 132 mM; for Effect of enhancement compared among the sugars: monosaccharides 100 or 200 mM; for GFP intensity: Exp 2, AAV3B 6×10^7 vg/well, iso-osmotic additives: sucrose 125.0, glucose 132.3, mannitol 132.3, NaCl 71.5 mM
Protocol: As the first procedure, 4 methods of the addition were carried out, including adding sucrose immediately (5 minutes or less) after the administration of the AAV vector, and the administration of the AAV vector immediately (5 minutes or less) after, 10 minutes after or 1 hour after adding sucrose to cells.
In the same manner as the above-described procedure, the GFP expression level was measured 3 days later.
In the same manner as the above-described procedures, the GFP expression level was measured 3 days later.
AAV3B-CMV-AcGFP was mixed in advance with sucrose at each of various concentrations, and the mixture was allowed to stand at room temperature for 1 hour followed by administration to cells. […] In order to prevent cell damage due to a buffer at the time of dilution of sucrose, medium replacement was carried out using a sucrose solution having the same concentration that was prepared by the medium 3 hours after the administration.

[1] = Exp 5, AAV3B 1×10^8 vg/well premixed 1 h, glucose 132 mM final, Day 1
[2] = Exp 5, AAV3B 1×10^8 vg/well premixed 1 h, glucose 132 mM final, Day 2
[3] = Exp 5, AAV3B 1×10^8 vg/well premixed 1 h, glucose 132 mM final, Day 3
[4] = Exp 9, monosaccharide 100 mM, 3 days
[5] = Exp 9, monosaccharide 100 mM, AAV3B 1×10^8 vg/well premixed 1 h, 3 days
[6] = Exp 9, monosaccharide 200 mM, 3 days
[7] = Exp 9, monosaccharide 200 mM, AAV3B 1×10^8 vg/well premixed 1 h, 3 days
[8] = Exp 8, disaccharide 100 mM in medium, AAV3B 1×10^8 vg/well, Day 3
[9] = Exp 8, disaccharide 100 mM, Day 3
[10] = Exp 8, disaccharide 125 mM in medium, AAV3B 1×10^8 vg/well, Day 3
[11] = Exp 8, disaccharide 125 mM, Day 3
[12] = Exp 8, disaccharide 150 mM in medium, AAV3B 1×10^8 vg/well, Day 3
[13] = Exp 8, disaccharide 150 mM, AAV3B 1×10^8 vg/well, Day 1
[14] = Exp 8, disaccharide 150 mM, AAV3B 1×10^8 vg/well, Day 2
[15] = Exp 8, disaccharide 150 mM, AAV3B 1×10^8 vg/well, Day 6
[16] = Exp 8, disaccharide 150 mM, Day 3

O=C[C@H](O)[C@@H](O)[C@H](O)[C@H](O)CO [D-Glucose, D-glucose]
D/L ratio of expression intensity (Exp 5, Day 1): 1.5 times | D/L ratio of expression intensity (Exp 5, Day 2): 1.8 | D/L ratio of expression intensity (Exp 5, Day 3): 2.1 times | Fluorescence Intensity [1]: 161.0 | Fluorescence Intensity [2]: 1232.5 | Fluorescence Intensity [3]: 2966.3

O=C(CO)[C@@H](O)[C@H](O)[C@H](O)CO [Fructose, fructose]
Relativeness (vs (−)) [4]: 2.7 | Fluorescence Intensity [5]: 402.0 | Relativeness (vs (−)) [6]: 16.2 times | Fluorescence Intensity [7]: 2378.5 | Effect of enhancement compared among the sugars (Exp 9, 3 days): comparable to that of sucrose

O=C[C@H](O)[C@@H](O)[C@@H](O)[C@H](O)CO [Galactose, galactose]
Relativeness (vs (−)) [4]: 1.3 | Fluorescence Intensity [5]: 189.5 | Relativeness (vs (−)) [6]: 4.0 times | Fluorescence Intensity [7]: 583.5 | Effect of enhancement compared among the sugars (Exp 9, 3 days): lower than those of the other sugars

O=C[C@@H](O)[C@H](O)[C@@H](O)[C@@H](O)CO [L-Glucose, L-glucose, reference compound]
Fluorescence Intensity [1]: 104.7 | Fluorescence Intensity [2]: 669.2 | Fluorescence Intensity [3]: 1397.7 | Relativeness (vs Glucose(−)) (Exp 5, glucose 132 mM final, Day 1): 11 times and 11.0 times

OC[C@H]1O[C@@H](O[C@H]2[C@H](O)[C@@H](O)C(O)O[C@@H]2CO)[C@H](O)[C@@H](O)[C@H]1O (some centres unmarked) [Lactose, lactose]
Fluorescence Intensity [8]: 1189.0 | Relativeness (vs No Sugar) [9]: 2.0 | Fluorescence Intensity [10]: 1880.3 | Relativeness (vs No Sugar) [11]: 3.1 | Fluorescence Intensity [12]: 3606.8 | Fluorescence Intensity [13]: 503.2 | Fluorescence Intensity [14]: 2097.0 | Fluorescence Intensity [15]: 10798.2

OC[C@H]1O[C@H](O[C@H]2[C@H](O)[C@@H](O)[C@H](O)O[C@@H]2CO)[C@H](O)[C@@H](O)[C@@H]1O [Maltose, maltose]
Fluorescence Intensity [8]: 1158.0 | Relativeness (vs No Sugar) [9]: 1.9 | Fluorescence Intensity [10]: 1833.5 | Relativeness (vs No Sugar) [11]: 3.0 | Fluorescence Intensity [12]: 3281.8 | Fluorescence Intensity [13]: 532.7 | Fluorescence Intensity [14]: 2009.0 | Relativeness (vs No Sugar) [16]: 5.4

OC[C@@H](O)[C@@H](O)[C@H](O)[C@H](O)CO [Mannitol, mannitol, reference compound]
GFP intensity (3 days): 342.8

[Cl-].[Na+] [NaCl, reference compound]
GFP intensity (3 days): 2.5

OC[C@H]1O[C@H](O[C@H]2O[C@H](CO)[C@@H](O)[C@H](O)[C@H]2O)[C@H](O)[C@@H](O)[C@@H]1O [Trehalose, trehalose]
Fluorescence Intensity [8]: 995.7 | Relativeness (vs No Sugar) [9]: 1.6 | Fluorescence Intensity [10]: 1249.0 | Relativeness (vs No Sugar) [11]: 2.1 | Fluorescence Intensity [12]: 1903.7 | Fluorescence Intensity [13]: 230.7 | Fluorescence Intensity [14]: 949.8 | Fluorescence Intensity [15]: 6490.7 | Relativeness (vs No Sugar) [16]: 3.1
